# Laboratory results published in patent publication US20230265389A1, “METHOD OF TRANSFECTING MACROPHAGES” (The University Court of The University of Edinburgh, priority 2020, published 2023).
# Columns and labels:
# [1] = system: hMDMs; experiment: Phagocytosis assay with pHrodo E. coli red beads; format: cell-based, human; details: GFP-transfected hMDMs relative to untransfected hMDMs
# Method: Cells were seeded in 96 well plates at a density of 200,000 per well in triplicate wells and left to adhere overnight. The following day, medium was aspirated and replaced with TexMACS medium containing NucBlue reagent (Invitrogen) and incubated for 30 min at 37° C. to stain nuclei. Medium was aspirated, cells washed in PBS, and then 100 µl PBS was added to cells. 100 µl of pHrodo E. coli red beads (diluted 1:10 in PBS) was added to the cells, and the cells were observed using an Operetta (PerkinElmer) to photograph fluorescence every 5 minutes over 145 minutes using a 40X objective. Images were analysed using Columbus. Nuclei were identified by NucBlue staining, and pHrodo red fluorescence intensity was measured in a cytoplasmic ring region around the nucleus. Fluorescence is reported as average pHrodo red fluorescence per nucleus.
# [2] = system: human monocyte-derived macrophages; experiment: Phase/contrast microscopy of transfected macrophages cultured with STING inhibitor; format: cell-based
# Text: (D) In vitro phagocytosis assay of untransfected hMDMs (control) versus GFP-transfected macrophages treated with BX-795 (GFP + BX-795), with M2-like polarising factors (GFP + BX-795 + IL4/IL13 or IL10) or DMSO control (GFP). (E) Serum liver function tests and histological analysis of picrosirius red (PSR) staining of collagen in chronic CCl4mice treated with cryopreserved hMDM (cryo), GFP-transfected hMDM treated with DMSO (GFP), GFP-transfected hMDM treated with BX-795 (GFP+B) or PBS vehicle (vehicle). *p<0.05 one-way ANOVA.
# Monocyte-derived macrophages were harvested, counted and resuspended at a density of 5 × 10^7 cells/mL of CliniMACS Electroporation Buffer (Miltenyi). 25-100 µg/mL of pMax-GFP plasmid (Lonza) was mixed with the cell suspension for electroporation. For electroporation, 100 µl of cell/plasmid mix was introduced into 0.2 cm electroporation cuvettes and electroporation conducted with the CliniMACS Prodigy Electroporator (Miltenyi). Parameters assessed were 1st pulse voltage and type, and 2nd pulse voltage, type and length. Following electroporation, cells were cultured as above, with or without the STING inhibitor BX-795 (Invivogen) up to a concentration of 10 µM.
compound,measurement,setting,value
O=C(NCCCNc1nc(Nc2cccc(NC(=O)N3CCCC3)c2)ncc1I)c1cccs1 [BX-795],"phagocytic capacity (average fluorescence of pHRodo beads per cell), of non-genetically modified hMDMs",[1],approximately 66%
same,cell health and GFP expression,[2]; inhibitor at 10 µM,some loss of cells
same,cell health and GFP expression,[2]; inhibitor up to 8 µM,remained healthy and GFP-expressing
